Laboratory results as given in patent US8778954B2, “Phenylpyridine derivative and medicinal agent comprising same” (Kowa Company, Ltd., priority 2009, dated 2014).

Experiments:
[1] = biological target: T1, angiotensin II type 1 receptor (Oryctolagus cuniculus, UniProt P34976); experiment: Angiotensin II receptor antagonistic activity in isolated rabbit blood vessels (thoracic aorta ring, angiotensin II-induced contraction); assay type: cell-based; details: 0.1 μM test compound, angiotensin II (10 nM)-induced contraction, read-out: Angiotensin II activity inhibitiom rate (%) at 0.1 μM concentration
T1 construct: By using a specimen of isolated rabbit blood vessels; from tissue; host or cells: rabbit (New Zealand White) thoracic aorta ring
T1 sequence (P34976 1-359): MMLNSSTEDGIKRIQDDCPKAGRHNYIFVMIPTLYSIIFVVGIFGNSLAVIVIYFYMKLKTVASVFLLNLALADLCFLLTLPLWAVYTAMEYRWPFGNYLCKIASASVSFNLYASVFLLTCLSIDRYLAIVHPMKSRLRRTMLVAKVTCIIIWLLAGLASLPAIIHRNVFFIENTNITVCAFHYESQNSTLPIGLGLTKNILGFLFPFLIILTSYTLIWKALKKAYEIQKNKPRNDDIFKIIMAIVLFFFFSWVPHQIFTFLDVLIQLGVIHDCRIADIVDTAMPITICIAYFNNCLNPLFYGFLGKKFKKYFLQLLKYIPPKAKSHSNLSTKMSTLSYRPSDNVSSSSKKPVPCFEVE
Protocol: By using a specimen of isolated rabbit blood vessels, antagonistic activity of the compounds of the invention against angiotensin II type 1 receptor was estimated from a dose-response curve of angiotensin II-induced blood vessel contraction. Specifically, the specimen of thoracic aorta ring of a rabbit (New Zealand White: male, 2.4 to 3.0 kg) was suspended in a magnus bath filled with Krebs-Henseleite buffer (composition: 118 mM NaCl, 4.7 mM KCl, 2.55 mM CaCl2, 1.18 mM MgSO4, 1.18 mM KH2PO4, 24.88 mM NaHCO3, and 11.1 mM D-glucose), and angiotensin II (10 nM)-induced contraction was obtained in the presence of the compounds of each test (1 nmol/L to 10 μmol/L). During the measurement, the inside temperature of the magnus bath was maintained at 37° C. and the bath was continuously ventilated with a sufficient amount of mixed gas (95% O2 and 5% CO2). The angiotensin II-induced contraction was converted into a relative value (%) that is based on the angiotensin II (0.1 μM)-induced contraction in the absence of the compounds of each example.

human PPARγ2 = biological target: T2, human PPARγ2 (Homo sapiens, UniProt P37231); experiment: PPARγ activation activity, Gal4-PPARγ2 LBD luciferase transfection assay using COS7 cells; assay type: cell-based; details: Gal4-human PPARγ2 LBD chimera, 16 hours, rosiglitazone = 100%
T2 construct: the amino acids 182 to 505 of human PPARγ2; expressed in transfected cells; host or cells: COS7 cells (African green monkey kidney)
T2 sequence (P37231 182-505): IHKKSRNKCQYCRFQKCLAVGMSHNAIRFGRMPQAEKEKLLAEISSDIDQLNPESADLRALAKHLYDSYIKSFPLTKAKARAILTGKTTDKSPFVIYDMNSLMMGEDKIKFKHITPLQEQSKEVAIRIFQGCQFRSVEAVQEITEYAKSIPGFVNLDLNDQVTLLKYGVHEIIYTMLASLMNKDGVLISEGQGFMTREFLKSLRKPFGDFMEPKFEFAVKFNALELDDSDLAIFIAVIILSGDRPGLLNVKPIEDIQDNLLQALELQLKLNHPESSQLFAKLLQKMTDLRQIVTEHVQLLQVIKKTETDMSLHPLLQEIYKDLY
Protocol: The agonistic activity of the compounds of the invention on PPARγ was measured based on the transfection assay using COS7 cells (DS Pharma Biomedical Co., Ltd., Osaka, Japan), which are the cell line derived from the kidney of the African green monkey. COS7 cells were cultured under 5% CO2 concentration, and DMEM medium containing 10% fetal bovine serum, glutamic acid, and antibiotics was used as a medium.
As an expression vector, a chimera in which DNA binding domain of Gal4, which is a yeast transcription factor, and ligand binding domain of human PPARγ2 are fused, i.e., a fused product between the amino acids 1 to 147 of Gal4 transcription factor and the amino acids 182 to 505 of human PPARγ2, was used. Furthermore, as a reporter vector, a firefly luciferase containing five copies of Gal4 recognition sequence in the promoter region was used. Plasmid transfection to the cells was performed according to a method which uses jetPEI (trade name, manufactured by Funakoshi Co., Ltd., Tokyo, Japan). Furthermore, β-galactosidase expression vector was employed as an internal standard.
After the transfection of the cells, the medium was replaced with a DMEM medium (containing 1% serum) added with the test compound, and the cells were further cultured for 16 hours. After that, the luciferase activity and β-galactosidase activity in the cell lysis solution were measured.
For the present test, dimethyl sulfoxide (DMSO) was used for dissolution and dilution of the test compounds, and during the cell treatment, the DMSO concentration in DMEM medium (containing 1% serum) was adjusted to 0.1%. As a positive compound, rosiglitazone (trade name, manufactured by ALEXIS Corporation, Switzerland) was used. The luciferase activity (%) of the test compounds (1 to 30 μmol/L) was calculated when the luciferase activity of rosiglitazone (3 to 10 μmol/L) is 100% and the luciferase activity in the absence of the test compound is 0%. The 50% effective concentration of the test compound (EC50, 50% effect concentration) was calculated by using SAS Preclinical Package Ver 5.0 (trade name, manufactured by SAS institute Japan Co., Tokyo, Japan), which is a statistical analysis program.
EC50 values of these compounds are described in Table 2. […] Under the same condition, the PPARγ activation activity of telmisartan, i.e., EC50, was 1 to 5 μM.

[2] = test system: spontaneously hypertensive rats (SHR); experiment: Hypotensive activity with tail cuff method in spontaneously hypertensive rats; assay type: in vivo, rat; details: 3 and 10 mg/kg orally once a day for 7 days, 4, 24 and 72 hours after final administration, FIG. 1
Protocol: By using 19-week old spontaneously hypertensive rats (SHR), the body weight and the systolic blood pressure (SBP) of each rat were measured before administration of the medicine, and group separation was performed by blocking assignment so that there was no variation of these values between respective groups. Solvent control (0.5% methyl cellulose solution, MC), 3 mg/kg telmisartan, 3 and 10 mg/kg of the compound of Example 21, and 3 and 10 mg/kg of the compound of Example 23 were orally administered iteratively for 7 days, once a day. The blood pressure and the heart beat rate were measured with tail cuff method at 4, 24, and 72 hours after the administration of the final administration day. Specifically, the rat was put into a cylindrical positioner, maintained at 37° C., and the blood pressure and the heart beat rate were measured from the tail of the rat during the resting state using a non-invasive blood pressure meter (trade name: BP-98A, manufactured by Softron Co., Ltd., Tokyo, Japan). The blood pressure and the heart beat rate were measured for each individual three times or more in a row. When the difference of the systolic blood pressures between the consecutive measurement values was 5 mmHg or less, the average values of these measurement values were taken as data, except for the first measurement. […]

SMILES	inhibition at 0.1 µM [1] [%]	EC50 (human PPARγ2) [nM]	blood pressure lowering activity (change in systolic blood pressure from pre-administration) [2]
CCCCc1nc(C(C)C)n(-c2ncc(OCC)cn2)c(=O)c1Cc1ccc(-c2ccccc2-c2noc(=O)[nH]2)nc1 [Example 21, 3-{2-{5-{[4-butyl-1-(5-ethoxypyrimidin-2-yl)-2-isopropyl-6-oxo-1,6-dihydropyrimidin-5-yl]methyl}pyridin-2-yl}phenyl}-1,2,4-oxadiazol-5(4H)-one]	70.3	450	potent blood pressure lowering activity dose-dependently that was equivalent or more to telmisartan
CCCCc1nc(C2CC2)n(-c2ncc(OCC)cn2)c(=O)c1Cc1ccc(-c2ccccc2-c2noc(=O)[nH]2)nc1 [Example 23, 3-{2-{5-{[4-butyl-2-cyclopropyl-1-(5-ethoxypyrimidin-2-yl)-6-oxo-1,6-dihydropyrimidin-5-yl]methyl}pyridin-2-yl}phenyl}-1,2,4-oxadiazol-5(4H)-one]	75.2	760	potent blood pressure lowering activity dose-dependently that was equivalent or more to telmisartan
